According to publication PMC9977845 (2023):

Columns and labels:
[1] = system: D1 (DNA, duplex) CCCGGG; assay: 1H NMR; conditions: Na+ 10 mM (NaCl); 2.5 mM cacodylate pH 5.0; intercalation at CG/CG
[2] = system: D4 (DNA, duplex) GGGTACCC; assay: 1H NMR; conditions: Na+ 10 mM (NaCl), 2.5 mM cacodylate pH 5.0
[3] = system: D7 (DNA, duplex) GTACGTAC; assay: 1H NMR; conditions: Na+ 10 mM (NaCl); 2.5 mM cacodylate pH 5.0; intercalation at TA/TA
[4] = system: D8 (DNA, duplex) CTAGCTAG; assay: 1H NMR; conditions: Na+ 10 mM (NaCl); 2.5 mM cacodylate pH 5.0; intercalation at TA/TA
[5] = system: B3; D2; d(CGATATCG)2 (DNA, duplex) CGATATCG; assay: 2D NMR (NOESY) and restrained MD structure; conditions: Na+ 10 mM (NaCl); 2.5 mM cacodylate pH 5.0; 5 °C; intercalation at TA/TA
[6] = system: D3; d(CCCTAGGG)2 (DNA, duplex) CCCTAGGG; assay: 2D NMR (NOESY) and restrained MD structure; conditions: Na+ 10 mM (NaCl); 2.5 mM cacodylate pH 5.0; 5 °C; intercalation at TA/TA
[7] = system: B1; d(CGGTACCG)2 (DNA, duplex) CGGTACCG; assay: UV-VIS titration, chemometric (PCA) Scatchard analysis; conditions: Na+ 10 mM (NaCl); 2.5 mM cacodylate pH 5.0; 0.01 mM ligand; microscopic constant
[8] = system: B2; d(CGCTAGCG)2 (DNA, duplex) CGCTAGCG; assay: as above; conditions: Na+ 10 mM (NaCl); 2.5 mM cacodylate pH 5.0; 0.01 mM ligand; microscopic constant
[9] = system: B3; D2; d(CGATATCG)2 (DNA, duplex) CGATATCG; assay: as above; conditions: Na+ 10 mM (NaCl); 2.5 mM cacodylate pH 5.0; 0.01 mM ligand; microscopic constant
[10] = system: B3; D2; d(CGATATCG)2 (DNA, duplex) CGATATCG; assay: 1H NMR titration; conditions: Na+ 10 mM (NaCl), 2.5 mM cacodylate pH 5.0, unspecific
[11] = system: B2; d(CGCTAGCG)2 (DNA, duplex) CGCTAGCG; assay: 2D NMR (NOESY) and restrained MD structure; conditions: Na+ 10 mM (NaCl); 2.5 mM cacodylate pH 5.0; 5 °C; intercalation at TA/TA
[12] = system: B4; d(CGTTAACG)2 (DNA, duplex) CGTTAACG; assay: UV-VIS titration, chemometric (PCA) Scatchard analysis; conditions: Na+ 10 mM (NaCl); 2.5 mM cacodylate pH 5.0; 0.01 mM ligand; microscopic constant
[13] = unspecific, no intercalation site, duplex:ligand 1:1.5

**Q.** Which results are given for `CCN(CC)CCNc1ccc2ncn3c4ccc(O)cc4c(=O)c1c23`?
**A.** binding [1]: yes; binding ([2]; intercalation at TA/TA): yes; binding [3]: yes; binding [4]: yes; binding [5]: yes; binding [6]: yes; Dissociation constant [7]: 0.524 µM; Dissociation constant [8]: 0.260 µM; Dissociation constant [9]: 0.156 µM

**Q.** Which results are given for `CN(C)CCCNc1c2ccccc2nc2cccc([N+](=O)[O-])c12`?
**A.** binding [2, 13]: weak; binding ([10]; presumably minor groove at centre, no defined intercalation): weak

**Q.** For `CN(C)CCCNc1ccc2nnn3c4ccc(O)cc4c(=O)c1c23`, which binding [11] is on record?
**A.** The binding was “yes”.

**Q.** What about the Dissociation constant [7] of the same compound?
**A.** The Dissociation constant was 0.145 µM.

**Q.** What about the Dissociation constant [8] of the same compound?
**A.** Its Dissociation constant is 0.227 µM.

**Q.** What about the Dissociation constant [9] of the same compound?
**A.** Its Dissociation constant is 0.608 µM.

**Q.** What about the Dissociation constant [12] of the same compound?
**A.** The Dissociation constant was 0.248 µM.

**Q.** `Cc1ccc([N+](=O)[O-])c2c(NCCO)c3ccccc3nc12` was tested. Which binding [2, 13] did it give?
**A.** Its binding is “weak”.

**Q.** And the binding ([10]; weaker than C-283)?
**A.** The binding was “weak”.
